The nature of data set [1]: Antiproliferative activity against human KB-7d cells. In kind it is functional, cell-based. The conditions noted are these: KB7D.
Data set [2] relates to HUVEC. Briefly: Disruption of vasculature in HUVECs assessed as inhibition of VEGF-induced capillary tube formation at 100 nM by microscopy. Type of data set: functional, cell-based. Conditions: Homo sapiens.
In data set [3] the test system is HUVEC. Briefly: Disruption of vasculature in HUVECs assessed as inhibition of VEGF-induced capillary tube formation by microscopy. Type of data set: functional, cell-based. The conditions noted are these: Homo sapiens.
Data set [4] relates to KB. The data set can be described thus: Cell cycle arrest in human KB cells assessed as reduction of cells at G1 phase at 25 to 400 nM after 24 hrs using propidium iodide staining by flow cytometry. Type of data set: functional, cell-based. A general note: In flow cytometry, cells or beads pass a laser one at a time.
Data set [5] concerns the target T1, Tubulin (Homo sapiens) (UniProt P68371+Q9H4B7+P0DPH7+P68366+Q13509+Q71U36+P04350+Q3ZCM7+P07437+P68363+Q9BQE3+Q6PEY2+Q13885+Q9BVA1+Q9BUF5). Briefly: Displacement of [3H]colchicine from long-chain biotin-labeled tubulin (unknown origin) at 5 uM after 2 hrs by competition-binding scintillation proximity assay. Type of data set: protein-complex assay. (In general: Loss of bound radioactivity is the signal in a displacement assay; it reports binding, not function.)

Data set [6] addresses T1, Tubulin (Homo sapiens). The data set can be described thus: Inhibition of MAP-rich tubulin (unknown origin) polymerization at 10 uM measured every 30 seconds for 30 mins by spectrophotometry. Type of data set: protein-complex assay.
In a further data set the target is Tubulin. Briefly: Inhibition of tubulin (unknown origin) polymerization by spectrophotometry. In kind it is protein-complex assay, Homo sapiens.
Data set [7] is described as follows: Retention time of the compound by HPLC. In kind it is physicochemical.
The test system of data set [8] is HUVEC. The data set can be described thus: Cytotoxicity against HUVECs assessed as reduction in cell viability at 100 nM. In kind it is cell-based. The conditions noted are these: human, 0.1 µM.
Data set [9] is described as follows: Antiproliferative activity against human MKN45 cells. In kind it is functional, cell-based. Conditions: MKN-45.
For data set [10], the target named is T1, Tubulin (Homo sapiens). The data set can be described thus: Competitive inhibition of [3H]colchicine binding to long-chain biotin-labeled tubulin (unknown origin) after 2 hrs by double-reciprocal plot analysis. Type of data set: protein-complex assay.
Data set [11] deals with KB. The data set can be described thus: Cell cycle arrest in human KB cells assessed as reduction of cells at S phase at 25 to 400 nM after 24 hrs using propidium iodide staining by flow cytometry. In kind it is functional, cell-based.
Data set [12] deals with T1, Tubulin (Homo sapiens). The data set can be described thus: Inhibition of MAP-rich tubulin (unknown origin) polymerization measured every 30 seconds for 30 mins by spectrophotometry. In kind it is protein-complex assay.
Data set [13] relates to KB. Briefly: Antiproliferative activity against human KB cells. Type of data set: functional, cell-based.
Data set [14] is described as follows: Antiproliferative activity against human KB-VIN10 cells. Type of data set: functional, cell-based.
Data set [15] is described as follows: Antiproliferative activity against human KB-S15 cells. Type of data set: functional, cell-based.
The target in data set [16] is T1, Tubulin (Homo sapiens). Briefly: Displacement of [3H]colchicine from long-chain biotin-labeled tubulin (unknown origin) at 1 uM after 2 hrs by competition-binding scintillation proximity assay. In kind it is protein-complex assay.
Data set [17] concerns KB. Briefly: Cell cycle arrest in human KB cells assessed as accumulation at G2/M phase after 24 hrs using propidium iodide staining by flow cytometry. In kind it is functional, cell-based.
Data set [18] deals with HT-29. The data set can be described thus: Antiproliferative activity against human HT-29 cells. Type of data set: functional, cell-based.
The subject of data set [19] is KB. The data set can be described thus: Cell cycle arrest in human KB cells assessed as accumulation of cells at sub-G1 phase at 100 nM after 24 hrs using propidium iodide staining by flow cytometry. In kind it is functional, cell-based.
Data set [20] relates to KB. Briefly: Ratio of ABT751 IC50 to compound IC50 for human KB cells. In kind it is functional.
Another data set concerns MKN-45. The data set can be described thus: Ratio of ABT751 IC50 to compound IC50 for human MKN45 cells. Type of data set: functional.
Data set [21] concerns HT-29. The data set can be described thus: Ratio of ABT751 IC50 to compound IC50 for human HT-29 cells. In kind it is functional.

Calls of active or inactive are those of the source. No cut-off for these calls is given here.

As usually defined, the IC50 is the concentration needed to halve the response being measured. Read a low IC50 as higher potency. Broadly, the inhibition is the percentage by which the read-out fell short of the control.

Consider `CC(=O)O[C@H]1C(=O)[C@@]2(C)[C@H]([C@H](OC(=O)c3ccccc3)[C@]3(O)C[C@H](OC(=O)[C@H](O)[C@@H](NC(=O)c4ccccc4)c4ccccc4)C(C)=C1C3(C)C)[C@]1(OC(C)=O)CO[C@@H]1C[C@@H]2O` [PACLITAXEL], for which the IC50 in data set [1] came to 7.9 nM.
For the compound `COc1ccc(S(=O)(=O)N2CCc3cccc(Nc4ccc(C#N)cc4)c32)cc1`, the result with HUVEC [2], in the data set with KB [4], in the data set with KB [11] and with KB [19] was Active. Moreover, the Activity entry in the data set with HUVEC [3] was “Dose-dependent effect”; in the data set on HUVEC [8], “Non-toxic”; in the data set with KB [17], “Dose-dependent effect”. In addition, the inhibition was 86.4% at Tubulin (Homo sapiens) [5], “Dose-dependent effect” on Tubulin (Homo sapiens) [12] and 83.6% at Tubulin (Homo sapiens) [16]. The inhibition result on Tubulin (Homo sapiens) [6] and on Tubulin (Homo sapiens) [10] was “Active” in each case. The IC50 was found to be 3200 nM at Tubulin; 92 nM in data set [9]; 49.7 nM in the data set on KB [13]; 71.9 nM in [14]; 77.3 nM in data set [15]; 71.1 nM in data set [1]. This compound also showed an IC50 in the data set with HT-29 [18] of 149 nM. The compound also showed a Retention_time in data set [7] of 40.79 min.
On to `COc1ccc(S(=O)(=O)N2CCc3cccc(Nc4ccc(Cl)cc4)c32)cc1`, for which the Retention_time in data set [7] worked out at 48.11 min. For the same compound, the concentration for half-maximal inhibition (IC50) in data set [9] is 463 nM; in the data set with KB [13] it was 1100 nM; in the data set with HT-29 [18] it was 658 nM.
On the same counts, the results for `COc1ccc(S(=O)(=O)N2CCc3cccc(Nc4ccc(F)c(F)c4)c32)cc1` are 45.49 min, 726 nM, 412 nM and 968 nM.
As for `COc1ccc(S(=O)(=O)N2CCc3cccc(Nc4ccc(O)cc4)c32)cc1`, the Retention_time in [7] was 32 min. In addition, the IC50 in data set [9] was determined as 493 nM; in the data set on KB [13], 239 nM; with HT-29 [18], 511 nM.
On the same counts, the results for `COc1ccc(Nc2cccc3c2N(S(=O)(=O)c2ccc(OC)cc2)CC3)cc1` are 43.47 min, 487 nM, 1200 nM and 803 nM.
On the same counts, the results for `COc1ccc(S(=O)(=O)N2CCc3cccc(Nc4ccc(F)cc4)c32)cc1` are 44.71 min, 563 nM, 557 nM and 588 nM.
On the same counts, the results for `COc1ccc(S(=O)(=O)N2CCc3cccc(Nc4ccc(C(=O)O)cc4)c32)cc1` are 33.94 min, 1390 nM, 846 nM and 2380 nM.
In data set [1], `CC[C@]1(O)C[C@H]2CN(CCc3c([nH]c4ccccc34)[C@@](C(=O)OC)(c3cc4c(cc3OC)N(C=O)[C@H]3[C@@](O)(C(=O)OC)[C@H](OC(C)=O)[C@]5(CC)C=CCN6CC[C@]43[C@@H]65)C2)C1` [VINCRISTINE] registered an IC50 of 1.2 nM.
Consider `COC(=O)c1ccc(Nc2cccc3c2N(S(=O)(=O)c2ccc(OC)cc2)CC3)cc1`, for which the results for the inhibition on Tubulin (Homo sapiens) [5] and at Tubulin (Homo sapiens) [16] were 66.9% and 41.4%, respectively. Besides, the IC50 at Tubulin turned out to be 4700 nM; in data set [9], 487 nM; in the data set on KB [13], 93.5 nM; with HT-29 [18] it was 678 nM. In data set [7], this compound returned a Retention_time of 42.74 min. Also, the “Ratio IC50” value with KB [20] came to 3.
Turning to `COc1ccc(S(=O)(=O)N2CCc3cccc(Nc4ccccc4)c32)cc1`, the Retention_time in data set [7] was determined as 44.81 min. In addition, the IC50 stood at 187 nM in data set [9], 342 nM with KB [13] and 343 nM in the data set on HT-29 [18].
For the compound `COc1ccc(S(=O)(=O)N2CCc3cccc(Nc4ccc([N+](=O)[O-])cc4)c32)cc1`, the inhibition on Tubulin (Homo sapiens) [5] was 69.3%; on Tubulin (Homo sapiens) [16], 44%. Besides, the IC50 against Tubulin stood at 3700 nM; in data set [9], 107 nM; in the data set on KB [13] it was 101 nM; in data set [14], 109 nM; in data set [15], 95.4 nM; in data set [1], 115 nM. Besides, in the data set on HT-29 [18], half-maximal inhibition (IC50) required 191 nM. The Retention_time in data set [7] worked out at 42.28 min. For the same compound, the “Ratio IC50” value in the data set on MKN-45 and in the data set on HT-29 [21] was 1.5 each time.
Consider `COc1cc([C@@H]2c3cc4c(cc3[C@@H](O[C@@H]3O[C@@H]5CO[C@@H](C)O[C@H]5[C@H](O)[C@H]3O)[C@H]3COC(=O)[C@H]23)OCO4)cc(OC)c1O` [ETOPOSIDE], for which the half-inhibitory concentration (IC50) was 23000 nM in [14], 3500 nM in data set [15] and 54000 nM in data set [1].

For the origin of these results see ChEMBL document CHEMBL3351617, “Concise syntheses of 7-anilino-indoline-N-benzenesulfonamides as antimitotic and vascular disrupting agents” (Bioorg Med Chem, 2014).
